Laboratory results reported in patent US5554359A, “Pigmentation enhancer and method” (priority 1994, dated 1996).
Where two headings read alike, the source gives them in different places. *1 amine or outer side, *2 acyl side, *3 side chain or, on linkers, in order; H or OH if unused. Where a SMILES comes first, the peptide text is derived from it. Bridges are numbered along the chain shown (N, C = ends). Roman numbers before positions name the chains, in order. [ ]: non-standard residue; d: D form. Actinocin(9to1) = Cc1c2oc3c(C)ccc(C(=O)[*:1])c3nc-2c(C(=O)[*:2])c(N)c1=O; NMeV = CN[C@H](C(=O)O)C(C)C; Sar = CNCC(=O)O

Columns and labels:
[1] = tested on: tyrosinase activity in human foreskin organ cultures; experiment: Tyrosinase activity in human foreskin organ cultures (tyrosine hydroxylase assay); assay type: cell-based; conditions: for activity at 1000 µM: Homo sapiens, read-out: Tyrosinase Activity, Percentage of control; for activity at 1000 µM / Tyrosinase Activity: Table 3, theophylline 1 mM, 3 days
Description: At the time of surgical removal, human foreskins were placed on sterile gauze saturated with sterile IMDM medium (Iscove's modified Dulbecco's medium purchased from Irvine Scientific of Santa Ana, Calif.) for transportation from the Hospital nursery to the laboratory. The tissues were rinsed in sterile IMDM medium containing 500 U/ml penicillin and 500 μg/ml of streptomycin for 5 minutes. Under sterile conditions, an intradermal injection of medium was performed from the dermal side prior to dissection of the mucous membrane and lower dermis by scissors to make the thickness of skins equal. The foreskins were then cut into approximately 3 mm×3 mm squares and either frozen at -75° C. or placed in organ culture as described hereafter.
The organ culture medium was prepared from IMDM with glutamine supplemented with 20% horse serum, 5% fetal bovine serum, 100 U/ml penicillin, 100 μg/ml streptomycin and 3 mg/ml sodium bicarbonate. The serums were obtained from Hyclone Lab. Inc. of Logan Utah. Culture units were prepared by placing sterilized filters (AP20 025 00, Millipore) over sterilized support screens ([…] Swinnex filter support screens, Millipore) in the wells of 6-well tissue culture plates (Falcon 3046) with medium added to the wells such that the skin support screens floated and the filter absorbed the medium from beneath. The tissue samples were placed, epidermis up, on top of the saturated filters and incubated at 37° C. in a 5% CO2 humidified atmosphere. The medium was changed everyday. Harvested cultures were frozen at -75° C.
Tyrosinase activity in human skin organ cultures was determined by measuring the tyrosine hydroxylase activity of the enzyme. The assay measures the production of ^3 H2 O during the conversion of [^3 H]tyrosine to L-DOPA. Weighed skin preparations were incubated in 0.3 ml of a reaction mixture containing 0.01 mM of L-tyrosine, 5-6 uCi/ml of [^3 H]tyrosine and 0.1 mM L-DOPA in 0.1M of pH 6.8 phosphate buffer for 4 hours at 37° C. To terminate the reaction, 1 ml of phosphate buffer was added, the tubes vortexed, and 0.4 ml aliquots removed in triplicate and mixed with an equal volume of Norit SG activated charcoal (10% w/v, in 0.1N HCl). Following centrifugation at 2000×g for 10 min, the supernatants (0.5 ml) were placed in scintillation vials, scintillation fluid added, and vials counted in a TM Analytic 6895 scintillation counter equipped with a DPM processor.
Human foreskins were treated with the compounds shown in Table 1, placed in culture, and incubated for 72 hours. The skins were then assayed for tyrosinase activity with the tyrosine hydroxylase assay method as described herein.
The medium and compounds were changed daily. Tyrosinase activity was determined by measuring the tyrosine hydroxylase activity of the enzyme.
Human foreskin organ cultures were treated with the compounds listed in Table 3 for 3 days and tyrosinase activity determined as described herein. Theophylline was used at 1 mM.

[2] = tested on: tyrosinase activity in mouse melanoma cells; conditions: Cloudman S91; cited from earlier work
[3] = tested on: tyrosinase activity in human melanocytes; experiment: Tyrosinase responses in human melanocytes (Table 6); assay type: cell-based; conditions: Homo sapiens, Melanocyte; Table 6; 10^-7 M except IBMX 10^-4 M, theophylline 1 mM, ammonium chloride 10 mM, A23187 not given; melanocytes from skin type III; read-out: Effect on Tyrosinase Activity, Human Melanocyte
Description: (§1) The mouse melanoma cell lines used to study the effects of lysosomotropic agents herein were the Cloudman S91 cell line (ATCC no. CCL 53.1) and two subclones of this line developed in our laboratory, the amelanotic line, AM-7, and a melanotic line, MEL-11A. All melanoma cell lines were grown in Ham's F-10 nutrient medium supplemented with 10% horse serum, penicillin (100 units/ml), and streptomycin (100 μg/ml). The normal human melanocyte cell strains used in this study were derived from foreskins of either neonares or from boys 2-6 years old. Human melanocyte cultures were grown in Ham's F-10 nutrient medium supplemented with 10% horse serum, 5% fetal bovine serum (FBS), 32 nM TPA (12-O-tetradecanoylphorbol 13-acetate), 10^-4 M IBMX(3-isobutyl-1-methylxanthine), penicillin (100 units/ml), and streptomycin (100 μg/ml).
(§2) To determine tyrosinase activity in situ in either melanoma cells or in human melanocyte cultures, the tyrosine hydroxylase activity of the enzyme was determined. Cells were seeded into 60-mm culture dishes at 2×10^5 cells/dish and allowed to attach overnight. The medium was then exchanged for the appropriate growth medium supplemented with 1 μCi/ml of [^3 H]tyrosine (L-ring-3,5-^3 H]-tyrosine, DuPont New England Nuclear), and with hormones, where indicated. Cells were grown in labeled medium for 24 hours, and at this time, the medium was removed and assayed for the presence of ^3 H2 O using the charcoal absorption method of Pomerantz. Tyrosinase activity in cell homogenates was determined by sonicating cell pellets in 0.1-M sodium phosphate buffer (pH 6.8) and then incubating 50-μl aliquots in 0.5 ml of a reaction mixture containing 0.1-mM tyrosine, 2 μCi/ml of [^3 H]tyrosine, 0.1-mM L-DOPA (dihydroxyphenylalanine), and 0.1 mM PMSF (phenylmethylsulfonyl fluoride) at 37° C. for 2 hours. Reactions were terminated by the addition of 1 ml of charcoal (10% w/v in 0.1-N HCl). Samples were centrifuged, and the supernatants removed for determination of the amount of ^3 H2 O produced.
Hormone responsiveness in human melanocyte cell cultures were examined (for these studies, melanocytes derived from skin type III were used). […] Tyrosinase activity and melanin content typically double with a 48-hour exposure to IBMX. […] The steroid hormones, for the most part, caused little, if any, change in tyrosinase activity at the concentrations used.

[4] = tested on: tyrosinase activity in mouse melanoma cells; experiment: Tyrosinase responses in mouse melanoma cells (Table 6); assay type: cell-based; conditions: compounds that raise intracellular cAMP levels or MSH
Description: as §1
as §2, with “produced. […]” for “produced.”

[5] = tested on: tyrosinase activity in mouse melanoma cells; experiment: Tyrosinase activity in Cloudman S91/mouse melanoma cells, earlier studies; assay type: cell-based; conditions: MSH-stimulated tyrosinase activity
Description: The MSH response in these cells can be mimicked by treatment of cells with either cAMP analogues such as dbcAMP (dibutyryl cyclic AMP) or 8-bromo cAMP, or with inhibitors of phosphodiesterase activity such as theophylline and IBMX. […] Although it is clear that cAMP is the second messenger for MSH action, tyrosinase activity is not altered by direct incubation with activated protein kinase A, nor is tyrosinase directly phosphorylated by this kinase. Even though cAMP levels rise within minutes of treatment of cells with MSH, no increases in tyrosinase activity are detectable until 6-9 hours after exposure of cells to hormone. […] In an effort to further delineate the cellular pathways involved in the MSH stimulation of tyrosinase activity, we examined the transcriptional and translational requirements for MSH action. […] However, other studies have shown that tyrosinase may be activated in melanoma cells treated with MSH. Discussed herein are studies carried out to examine the contributions of induction and activation to the overall MSH stimulation of tyrosinase activity in melanoma cells. Further, studies on the regulation of tyrosinase in normal human melanocytes are also described and compared to those from melanoma cells.
Even more elaborate models involving an activation of tyrosinase via internalized MSH receptors have been proposed. Evidence for tyrosinase inhibitors in mouse melanocytes and melanoma has been reported by many investigators, but no such molecules have yet been isolated.

[6] = Table 1, B = black, 72 h, Theophylline 1 mM, MSH 2 × 10^-7 M, dbcAMP 0.1 mM, D-phe-MSH 10^-8 M
[7] = Table 1, W = white, 72 h, Theophylline 1 mM, MSH 2 × 10^-7 M, dbcAMP 0.1 mM, D-phe-MSH 10^-8 M

Molecule: Cn1c(=O)c2[nH]cnc2n(C)c1=O [Theophylline, theophylline]
- activity at 1000 µM ([1]; 72 h, White skin (control 0.31 ± 0.03)): 307%
- activity at 1000 µM ([1]; 72 h, first Black skin (control 2.55 ± 0.13)): 212%
- activity at 1000 µM ([1]; 72 h, second Black skin (control 3.09 ± 0.12)): 197%
- Tyrosinase activity stimulated, percentage of black foreskins [1, 6]: 92%
- Tyrosinase activity unaffected, percentage of black foreskins [1, 6]: 8%
- Tyrosinase activity stimulated, percentage of white foreskins [1, 7]: 86%
- Tyrosinase activity unaffected, percentage of white foreskins [1, 7]: 14%
- Tyrosinase Activity ([1]; White skin (control 0.31 ± 0.03)): 0.95 ± 0.05 pmoles ^3 H2 O/hr/mg skin
- Tyrosinase Activity ([1]; first Black skin (control 2.55 ± 0.13)): 5.40 ± 0.26 pmoles ^3 H2 O/hr/mg skin
- Tyrosinase Activity ([1]; second Black skin (control 3.09 ± 0.12)): 6.1 ± 0.24 pmoles ^3 H2 O/hr/mg skin
- stimulation of tyrosinase activity ([1]; human foreskins, 72 hours): stronger stimulation of tyrosinase
- mimicking of the MSH response [2]: mimicked
- activity at 1000 µM [3]: 150 to 200%
- response of mouse melanoma cells [4]: respond vigorously

Molecule: α-amanitin
- hormonal induction of enzyme activity [5]: completely blocked

Molecule: Cc1c2oc3c(C)ccc(C(=O)N[C@@H]4C(=O)N[C@H](C(C)C)C(=O)N5CCC[C@H]5C(=O)N(C)CC(=O)N(C)[C@@H](C(C)C)C(=O)O[C@@H]4C)c3nc-2c(C(=O)N[C@@H]2C(=O)N[C@H](C(C)C)C(=O)N3CCC[C@H]3C(=O)N(C)CC(=O)N(C)[C@@H](C(C)C)C(=O)O[C@@H]2C)c(N)c1=O [actinomycin D] (I: T[dV]P[Sar][NMeV] / II: T[dV]P[Sar][NMeV]; ester I:1-I:C, II:1-II:C; linker I:N-II:N via Actinocin(9to1))
- hormonal induction of enzyme activity [5]: completely blocked

Molecule: C[C@@H]1C[C@@H]([C@H](O)CC2CC(=O)NC(=O)C2)C(=O)[C@@H](C)C1 [cycloheximide]
- hormonal induction of enzyme activity [5]: completely blocked
